experiment: Western blot analysis for "B" compounds; type: cell-based; conditions: read-out: Traditional Western Degradation Potency (DC50)
In short: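 Compound-treated cells lysed in RIPA buffer with protease inhibitors; equal protein (BCA) run on 10% SDS-PAGE, transferred to PVDF and probed with target antibodies. Band intensities quantified by densitometry and normalized to GAPDH.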

SMILES	DC50 [nM]
CN(C1CCC(CN2Cc3cc4c(cc3C2)C(=O)N(C2CCC(=O)NC2=O)C4=O)CC1)C1CCN(c2ccc([C@@H]3c4ccc(O)cc4CC[C@@H]3c3ccccc3)cc2)CC1 (stereo partly drawn) [Compound B75, 2-(2,6-dioxopiperidin-3-yl)-6-((4-((1-(4-((1R,2S)-6-hydroxy-2-phenyl-1,2,3,4-tetrahydronaphthalen-1-yl)phenyl)piperidin-4-yl)(methyl)amino)cyclohexyl)methyl)-6,7-dihydropyrrolo[3,4-f]isoindole-1,3(2H,5H)-dione]	> 100
O=C1CCC(N2C(=O)c3cc4c(cc3C2=O)CN(C2CCC(CN3CCN(c5ccc([C@@H]6c7ccc(O)cc7CC[C@@H]6c6ccccc6)cc5)CC3)CC2)C4)C(=O)N1 (stereo partly drawn) [Compound B76, 2-(2,6-dioxopiperidin-3-yl)-6-(4-((4-(4-((1R,2S)-6-hydroxy-2-phenyl-1,2,3,4-tetrahydronaphthalen-1-yl)phenyl)piperazin-1-yl)methyl)cyclohexyl)-6,7-dihydropyrrolo[3,4-f]isoindole-1,3(2H,5H)-dione]	10 to 100
O=C1CCC(N2C(=O)c3cc4c(cc3C2=O)CN(C2CCC(C(=O)N3CCN(c5ccc([C@@H]6c7ccc(O)cc7CC[C@@H]6c6ccccc6)cc5)CC3)CC2)C4)C(=O)N1 (stereo partly drawn) [Compound B77, 2-(2,6-dioxopiperidin-3-yl)-6-(4-(4-(4-((1R,2S)-6-hydroxy-2-phenyl-1,2,3,4-tetrahydronaphthalen-1-yl)phenyl)piperazine-1-carbonyl)cyclohexyl)-6,7-dihydropyrrolo[3,4-f]isoindole-1,3(2H,5H)-dione]	> 100
O=C1CCC(N2Cc3cc4c(cc3C2=O)CN(C2CCN(CC3CN(c5ccc([C@@H]6c7ccc(O)cc7CC[C@@H]6c6ccccc6)cc5)C3)CC2)C4)C(=O)N1 (stereo partly drawn) [Compound B78, 3-(6-(1-((1-(4-((1R,2S)-6-hydroxy-2-phenyl-1,2,3,4-tetrahydronaphthalen-1-yl)phenyl)azetidin-3-yl)methyl)piperidin-4-yl)-1-oxo-3,5,6,7-tetrahydropyrrolo[3,4-f]isoindol-2(1H)-yl)piperidine-2,6-dione]	> 100
O=C1CCC(N2C(=O)c3cc4c(cc3C2=O)CN(C(=O)C2CCN(CC3CN(c5ccc([C@@H]6c7ccc(O)cc7CC[C@@H]6c6ccccc6)cc5)C3)CC2)C4)C(=O)N1 (stereo partly drawn) [Compound B79, 2-(2,6-dioxopiperidin-3-yl)-6-(1-((1-(4-((1R,2S)-6-hydroxy-2-phenyl-1,2,3,4-tetrahydronaphthalen-1-yl)phenyl)azetidin-3-yl)methyl)piperidine-4-carbonyl)-6,7-dihydropyrrolo[3,4-f]isoindole-1,3(2H,5H)-dione]	> 100
O=C1CCC(N2Cc3cc4c(cc3C2=O)CN(C(=O)C2CCN(CC3CN(c5ccc([C@@H]6c7ccc(O)cc7CC[C@@H]6c6ccccc6)cc5)C3)CC2)C4)C(=O)N1 (stereo partly drawn) [Compound B80, 3-(6-(1-((1-(4-((1R,2S)-6-hydroxy-2-phenyl-1,2,3,4-tetrahydronaphthalen-1-yl)phenyl)azetidin-3-yl)methyl)piperidine-4-carbonyl)-1-oxo-3,5,6,7-tetrahydropyrrolo[3,4-f]isoindol-2(1H)-yl)piperidine-2,6-dione]	> 100
O=C1CCC(N2C(=O)c3cc4c(cc3C2=O)CN(CC2CCC(N3CCN(c5ccc([C@@H]6c7ccc(O)cc7CC[C@@H]6c6ccccc6)cc5)CC3)CC2)C4)C(=O)N1 (stereo partly drawn) [Compound B83, 2-(2,6-dioxopiperidin-3-yl)-6-((4-(4-(4-((1R,2S)-6-hydroxy-2-phenyl-1,2,3,4-tetrahydronaphthalen-1-yl)phenyl)piperazin-1-yl)cyclohcxyl)mcthyl)-6,7-dihydropyrrolo[3,4-f]isoindolc-1,3(2H,5H)-dione]	10 to 100
O=C1CCC(N2C(=O)c3cc4c(cc3C2=O)CN(C2CCC(NC3CCN(c5ccc([C@@H]6c7ccc(O)cc7CC[C@@H]6c6ccccc6)cc5)CC3)CC2)C4)C(=O)N1 (stereo partly drawn) [Compound B84, 2-(2,6-dioxopiperidin-3-yl)-6-(4-((1-(4-((1R,2S)-6-hydroxy-2-phenyl-1,2,3,4-tetrahydronaphthalen-1-yl)phenyl)piperidin-4-yl)amino)cyclohexyl)-6,7-dihydropyrrolo[3,4-f]isoindole-1,3(2H,5H)-dione]	> 100
CN(C1CCC(N2Cc3cc4c(cc3C2)C(=O)N(C2CCC(=O)NC2=O)C4=O)CC1)C1CCN(c2ccc([C@@H]3c4ccc(O)cc4CC[C@@H]3c3ccccc3)cc2)CC1 (stereo partly drawn) [Compound B88, 2-(2,6-dioxopiperidin-3-yl)-6-(4-((1-(4-((1R,2S)-6-hydroxy-2-phenyl-1,2,3,4-tetrahydronaphthalen-1-yl)phenyl)piperidin-4-yl)(methyl)amino)cyclohexyl)-6,7-dihydropyrrolo[3,4-f]isoindole-1,3(2H,5H)-dione]	> 100
O=C1CCC(N2C(=O)c3cc4c(cc3C2=O)CN(c2ncc(CN3CC(Oc5ccc([C@@H]6c7ccc(O)cc7CC[C@@H]6c6ccccc6)cc5)C3)cn2)C4)C(=O)N1 (stereo partly drawn) [Compound B89, 2-(2,6-dioxopiperidin-3-yl)-6-(5-((3-(4-((1R,2S)-6-hydroxy-2-phenyl-1,2,3,4-tetrahydronaphthalen-1-yl)phenoxy)azetidin-1-yl)methyl)pyrimidin-2-yl)-6,7-dihydropyrrolo[3,4-f]isoindole-1,3(2H,5H)-dione]	> 100
O=C1CCC(N2C(=O)c3cc4c(cc3C2=O)CN(c2ccc(CN3CC(Oc5ccc([C@@H]6c7ccc(O)cc7CC[C@@H]6c6ccccc6)cc5)C3)cn2)C4)C(=O)N1 (stereo partly drawn) [Compound B90, 2-(2,6-dioxopiperidin-3-yl)-6-(5-((3-(4-((1R,2S)-6-hydroxy-2-phenyl-1,2,3,4-tetrahydronaphthalen-1-yl)phenoxy)azetidin-1-yl)methyl)pyridin-2-yl)-6,7-dihydropyrrolo[3,4-f]isoindole-1,3(2H,5H)-dione]	> 100
O=C1CCC(N2C(=O)c3cc4c(cc3C2=O)CN(Cc2ccc(N3CC(Oc5ccc([C@@H]6c7ccc(O)cc7CC[C@@H]6c6ccccc6)cc5)C3)nc2)C4)C(=O)N1 (stereo partly drawn) [Compound B91, 2-(2,6-dioxopiperidin-3-yl)-6-((6-(3-(4-((1R,2S)-6-hydroxy-2-phenyl-1,2,3,4-tetrahydronaphthalen-1-yl)phenoxy)azetidin-1-yl)pyridin-3-yl)methyl)-6,7-dihydropyrrolo[3,4-f]isoindole-1,3(2H,5H)-dione]	10 to 100
O=C1CCC(N2C(=O)c3cc4c(cc3C2=O)CN(Cc2cnc(N3CC(Oc5ccc([C@@H]6c7ccc(O)cc7CC[C@@H]6c6ccccc6)cc5)C3)nc2)C4)C(=O)N1 (stereo partly drawn) [Compound B92, 2-(2,6-dioxopiperidin-3-yl)-6-((2-(3-(4-((1R,2S)-6-hydroxy-2-phenyl-1,2,3,4-tetrahydronaphthalen-1-yl)phenoxy)azetidin-1-yl)pyrimidin-5-yl)methyl)-6,7-dihydropyrrolo[3,4-f]isoindole-1,3(2H,5H)-dione]	> 100
O=C1CCC(N2C(=O)c3cc4c(cc3C2=O)CN(CC(=O)NC2CCN(c3ccc([C@@H]5c6ccc(O)cc6CC[C@@H]5c5ccccc5)cc3)CC2)C4)C(=O)N1 (stereo partly drawn) [Compound B93, 2-(6-(2,6-dioxopiperidin-3-yl)-5,7-dioxo-3,5,6,7-tetrahydropyrrolo[3,4-f]isoindol-2(1H)-yl)-N-(1-(4-((1R,2S)-6-hydroxy-2-phenyl-1,2,3,4-tetrahydronaphthalen-1-yl)phenyl)piperidin-4-yl)acetamide]	> 100
O=C1CCC(N2C(=O)c3cc4c(cc3C2=O)CN(CCC(=O)NC2CCN(c3ccc([C@@H]5c6ccc(O)cc6CC[C@@H]5c5ccccc5)cc3)CC2)C4)C(=O)N1 (stereo partly drawn) [Compound B94, 3-(6-(2,6-dioxopiperidin-3-yl)-5,7-dioxo-3,5,6,7-tetrahydropyrrolo[3,4-f]isoindol-2(1H)-yl)-N-(1-(4-((1R,2S)-6-hydroxy-2-phenyl-1,2,3,4-tetrahydronaphthalen-1-yl)phenyl)piperidin-4-yl)propenamide]	> 100
CN(CC1CN(c2ccc([C@@H]3c4ccc(O)cc4CC[C@@H]3c3ccccc3)cc2)C1)C1CCC(N2Cc3cc4c(cc3C2)C(=O)N(C2CCC(=O)NC2=O)C4=O)CC1 (stereo partly drawn) [Compound B95, 2-(2,6-dioxopiperidin-3-yl)-6-(4-(((1-(4-((1R,2S)-6-hydroxy-2-phenyl-1,2,3,4-tetrahydronaphthalen-1-yl)phenyl)azetidin-3-yl)methyl)(methyl)amino)cyclohexyl)-6,7-dihydropyrrolo[3,4-f]isoindole-1,3(2H,5H)-dione]	> 100
O=C1CCC(N2C(=O)c3cc4c(cc3C2=O)CN([C@H]2CC[C@@H](NC3CCN(c5ccc([C@@H]6c7ccc(O)cc7CC[C@@H]6c6ccccc6)cc5)CC3)CC2)C4)C(=O)N1 (stereo partly drawn) [Compound B96, 2-(2,6-dioxopiperidin-3-yl)-6-((1S,4s)-4-((1-(4-((1R,2S)-6-hydroxy-2-phenyl-1,2,3,4-tetrahydronaphthalen-1-yl)phenyl)piperidin-4-yl)amino)cyclohexyl)-6,7-dihydropyrrolo[3,4-f]isoindole-1,3(2H,5H)-dione]	> 100
O=C1CCC(N2C(=O)c3cc4c(cc3C2=O)CN([C@H]2CC[C@H](NC3CCN(c5ccc([C@@H]6c7ccc(O)cc7CC[C@@H]6c6ccccc6)cc5)CC3)CC2)C4)C(=O)N1 (stereo partly drawn) [Compound B97, 2-(2,6-dioxopiperidin-3-yl)-6-((1R,4r)-4-((1-(4-((1R,2S)-6-hydroxy-2-phenyl-1,2,3,4-tetrahydronaphthalen-1-yl)phenyl)piperidin-4-yl)amino)cyclohexyl)-6,7-dihydropyrrolo[3,4-f]isoindole-1,3(2H,5H)-dione]	> 100
O=C1CCC(N2C(=O)c3cc4c(cc3C2=O)CN(C2CCC(C(=O)NC3CN(c5ccc([C@@H]6c7ccc(O)cc7CC[C@@H]6c6ccccc6)cc5)C3)CC2)C4)C(=O)N1 (stereo partly drawn) [Compound B98, 4-(6-(2,6-dioxopiperidin-3-yl)-5,7-dioxo-3,5,6,7-tetrahydropyrrolo[3,4-f]isoindol-2(1H)-yl)-N-(1-(4-((1R,2S)-6-hydroxy-2-phenyl-1,2,3,4-tetrahydronaphthalen-1-yl)phenyl)azetidin-3-yl)cyclohexane-1-carboxamide]	> 100

— patent US20260028354A1, “TETRAHYDRONAPHTHALENE DERIVATIVES AS ESTROGEN RECEPTOR DEGRADERS” (REGENT OF THE UNIVERSITY OF MICHIGAN, priority 2022, published 2026)
